Patent publication US11612606B2, “8-aminoisoquinoline compounds and uses thereof” (priority 2018, dated 2023)

Target: HPK full length, T165E S171E (Homo sapiens (Human), UniProt Q92918, S171E/T165E)
Assay: HPK1-FL HTRF enzymatic assay ("HTRF")
Type: biochemical
Settings: ATP 1 mM, read-out: HPK1 Ki
Procedure: Assay Principle: HPK-FL enzyme phosphorylates Biotin-SLP-76 substrate in the presence of ATP at […] and varying concentrations of test compound. Product is detected by FRET using Eu-anti-pSLP76 Ab and SA-XL665. Also see www.cisbio.com/HTRF for additional HTRF technology information.
Instrumentation: Echo555 compound dispenser; Agilent Bravo; Perkin Elmer Envision.
To a 384 well Proxiplate with 80 nL compound or DMSO spotted on was added 4 μl/well kinase mix. The mixture was preincubated for 30 minutes and then 4 μl/well substrate mix was added. The solution was incubated for 60 min and then 4 μl/well detection mix was added. The solution was incubated for another 60 min.
Exemplary compounds were tested in the HTRF binding assays.

Chain of HPK full length, T165E S171E (Q92918 whole entry T165E/S171E, looked up): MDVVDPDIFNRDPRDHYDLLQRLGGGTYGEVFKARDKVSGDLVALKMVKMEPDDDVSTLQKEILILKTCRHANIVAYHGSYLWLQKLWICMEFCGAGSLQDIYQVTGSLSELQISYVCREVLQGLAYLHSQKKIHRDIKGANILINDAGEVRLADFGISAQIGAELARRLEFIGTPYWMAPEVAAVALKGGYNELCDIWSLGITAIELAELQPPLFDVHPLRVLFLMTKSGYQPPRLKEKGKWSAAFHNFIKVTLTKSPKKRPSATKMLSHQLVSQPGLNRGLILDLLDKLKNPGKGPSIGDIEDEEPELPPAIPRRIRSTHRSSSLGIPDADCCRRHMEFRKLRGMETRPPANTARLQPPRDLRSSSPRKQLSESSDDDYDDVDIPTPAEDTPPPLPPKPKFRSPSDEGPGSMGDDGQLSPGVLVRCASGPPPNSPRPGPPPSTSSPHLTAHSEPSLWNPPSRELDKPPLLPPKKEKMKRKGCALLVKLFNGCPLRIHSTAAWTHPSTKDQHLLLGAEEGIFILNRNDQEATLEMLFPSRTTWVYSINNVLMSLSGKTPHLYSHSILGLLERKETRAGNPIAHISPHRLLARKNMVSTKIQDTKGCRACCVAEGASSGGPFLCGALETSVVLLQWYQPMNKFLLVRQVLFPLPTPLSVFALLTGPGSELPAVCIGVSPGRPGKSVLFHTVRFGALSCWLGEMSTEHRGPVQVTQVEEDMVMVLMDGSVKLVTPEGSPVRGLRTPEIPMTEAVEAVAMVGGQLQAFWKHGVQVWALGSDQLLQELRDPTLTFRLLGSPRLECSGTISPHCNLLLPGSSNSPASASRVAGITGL

| SMILES | Ki [nM] |
| --- | --- |
| Cc1c(-c2cc3cc(NC(=O)O[C@@H]4CCN(CC(F)F)C[C@@H]4F)ncc3c(N)c2F)cnc2c1NCCO2 (single isomer, unassigned) [Compound 566a] | 0.293 |
| Cc1c(-c2cc3cc(NC(=O)O[C@H]4CCN(CC(F)F)C[C@H]4F)ncc3c(N)c2F)cnc2c1NCCO2 (single isomer, unassigned) [Compound 566b] | 0.149 |
| Cc1c(-c2cc3cc(NC(=O)O[C@H]4COC[C@@H]4C)ncc3c(N)c2F)cnc2c1NC[C@H](F)O2 (single isomer, unassigned) [Compound 567a] | 0.33 |
| Cc1c(-c2cc3cc(NC(=O)O[C@H]4COC[C@@H]4C)ncc3c(N)c2F)cnc2c1NC[C@@H](F)O2 (single isomer, unassigned) [Compound 567b] | 0.119 |
| Cc1c(-c2cc3cc(NC(=O)O[C@H]4CO[C@@H]5OCC[C@@H]54)ncc3c(N)c2F)cnc2c1NCCO2 (single isomer, unassigned) [Compound 568a] | 0.185 |
| Cc1c(-c2cc3cc(NC(=O)O[C@@H]4CO[C@H]5OCC[C@H]54)ncc3c(N)c2F)cnc2c1NCCO2 (single isomer, unassigned) [Compound 568b] | 0.018 |
| Cc1c(-c2cc3cc(NC(=O)O[C@H]4C[C@@H]([C@H](C)O)C4)ncc3c(N)c2F)cnc2c1NCCO2 (single isomer, unassigned) [Compound 573a] | 0.015 |
| Cc1c(-c2cc3cc(NC(=O)O[C@H]4C[C@H]([C@H](C)O)C4)ncc3c(N)c2F)cnc2c1NCCO2 (single isomer, unassigned) [Compound 573b] | 0.019 |
| Cc1c(-c2cc3cc(NC(=O)O[C@H]4C[C@H]([C@@H](C)O)C4)ncc3c(N)c2F)cnc2c1NCCO2 (single isomer, unassigned) [Compound 573c] | 0.017 |
| Cc1c(-c2cc3cc(NC(=O)O[C@H]4C[C@@H]([C@@H](C)O)C4)ncc3c(N)c2F)cnc2c1NCCO2 (single isomer, unassigned) [Compound 573d] | < 0.013 |
| Cc1c(-c2cc3cc(NC(=O)O[C@@H]4Cc5ncnn5C4)ncc3c(N)c2F)cnc2c1NCCO2 (single isomer, unassigned) [Compound 578a] | 0.028 |
| Cc1c(-c2cc3cc(NC(=O)O[C@H]4Cc5ncnn5C4)ncc3c(N)c2F)cnc2c1NCCO2 (single isomer, unassigned) [Compound 578b] | 0.15 |
| Cc1c(-c2cc3cc(NC(=O)O[C@H]4CC[C@@H](O)C4)ncc3c(N)c2F)cnc2c1NCCO2 (single isomer, unassigned) [Compound 582a] | 0.02 |
| Cc1c(-c2cc3cc(NC(=O)O[C@@H]4CC[C@H](O)C4)ncc3c(N)c2F)cnc2c1NCCO2 (single isomer, unassigned) [Compound 582b] | 0.02 |
| CO[C@H]1COCC[C@@H]1OC(=O)Nc1cc2cc(-c3cnc4c(c3C)NCCO4)c(F)c(N)c2cn1 (single isomer, unassigned) [Compound 583a] | 0.12 |
| CO[C@H]1COCC[C@H]1OC(=O)Nc1cc2cc(-c3cnc4c(c3C)NCCO4)c(F)c(N)c2cn1 (single isomer, unassigned) [Compound 583b] | 0.021 |
| CO[C@@H]1COCC[C@@H]1OC(=O)Nc1cc2cc(-c3cnc4c(c3C)NCCO4)c(F)c(N)c2cn1 (single isomer, unassigned) [Compound 583c] | 0.099 |
| CO[C@@H]1COCC[C@H]1OC(=O)Nc1cc2cc(-c3cnc4c(c3C)NCCO4)c(F)c(N)c2cn1 (single isomer, unassigned) [Compound 583d] | 0.72 |
| Cc1c(-c2cc3cc(NC(=O)O[C@H]4C[C@@H](O)C4)ncc3c(N)c2F)cnc2c1NC[C@@H]1C[C@H]21 (single isomer, unassigned) [Compound 584a] | 0.14 |
| Cc1c(-c2cc3cc(NC(=O)O[C@H]4C[C@@H](O)C4)ncc3c(N)c2F)cnc2c1NC[C@H]1C[C@@H]21 (single isomer, unassigned) [Compound 584b] | 2.1 |
| Cc1c(-c2cc3cc(NC(=O)N[C@@H]4CCN(C)C[C@H]4F)ncc3c(N)c2F)cnc2c1NCCO2 (single isomer, unassigned) [Compound 703a] | 0.022 |
| Cc1c(-c2cc3cc(NC(=O)N[C@H]4CCN(C)C[C@@H]4F)ncc3c(N)c2F)cnc2c1NCCO2 (single isomer, unassigned) [Compound 703b] | < 0.013 |

| SMILES | Ki [nM] |
| --- | --- |
| Cc1c(-c2cc3cc(NC(=O)N[C@H]4CCN(C)C[C@H]4F)ncc3c(N)c2F)cnc2c1NCCO2 (single isomer, unassigned) [Compound 703c, (±)-1-(8-Amino-7-fluoro-6-(8-methyl-2,3-dihydro-1H-pyrido[2,3-b][1,4]oxazin-7-yl)isoquinolin-3-yl)-3-((cis)-3-fluoro-1-methylpiperidin-4-yl)urea] | 0.03 |
| CC(=O)N1CC[C@H](NC(=O)Nc2cc3cc(-c4cnc5c(c4C)NCCO5)c(F)c(N)c3cn2)[C@H](F)C1 (single isomer, unassigned) [Compound 710a, (±)-1-((cis)-1-Acetyl-3-fluoropiperidin-4-yl)-3-(8-amino-7-fluoro-6-(8-methyl-2,3-dihydro-1H-pyrido[2,3-b][1,4]oxazin-7-yl)isoquinolin-3-yl)urea] | < 0.013 |
| Cc1c(-c2cc3cc(NC(=O)N[C@H]4CCCOC4)ncc3c(N)c2F)cnc2c1NCCO2 (single isomer, unassigned) [Compound 711a] | < 0.013 |
| Cc1c(-c2cc3cc(NC(=O)N[C@@H]4CCCOC4)ncc3c(N)c2F)cnc2c1NCCO2 (single isomer, unassigned) [Compound 711b] | < 0.013 |
| Cc1c(-c2cc3cc(NC(=O)N[C@@H]4CCOC4)ncc3c(N)c2F)cnc2c1NCCO2 (single isomer, unassigned) [Compound 722a] | < 0.013 |
| Cc1c(-c2cc3cc(NC(=O)N[C@H]4CCOC4)ncc3c(N)c2F)cnc2c1NCCO2 (single isomer, unassigned) [Compound 722b] | < 0.013 |
| CO[C@@H]1COC[C@@H]1NC(=O)Nc1cc2cc(-c3cnc4c(c3C)NCCO4)c(F)c(N)c2cn1 (single isomer, unassigned) [Compound 723a] | 0.469 |
| CO[C@H]1COC[C@H]1NC(=O)Nc1cc2cc(-c3cnc4c(c3C)NCCO4)c(F)c(N)c2cn1 (single isomer, unassigned) [Compound 723b] | 0.029 |
| Cc1c(-c2cc3cc(NC(=O)N[C@H]4COC[C@H]4F)ncc3c(N)c2F)cnc2c1NCCO2 (single isomer, unassigned) [Compound 724a] | 0.019 |
| Cc1c(-c2cc3cc(NC(=O)N[C@@H]4COC[C@@H]4F)ncc3c(N)c2F)cnc2c1NCCO2 (single isomer, unassigned) [Compound 724b] | 0.019 |
| Cc1c(-c2cc3cc(NC(=O)N[C@@H]4CC[C@H](C#N)C4)ncc3c(N)c2F)cnc2c1NCCO2 (single isomer, unassigned) [Compound 726a] | < 0.013 |
| Cc1c(-c2cc3cc(NC(=O)N[C@H]4CC[C@@H](C#N)C4)ncc3c(N)c2F)cnc2c1NCCO2 (single isomer, unassigned) [Compound 726b] | 0.016 |
| CO[C@@H]1CCC[C@@H]1NC(=O)Nc1cc2cc(-c3cnc4c(c3C)NCCO4)c(F)c(N)c2cn1 (single isomer, unassigned) [Compound 729a] | 1.37 |
| CO[C@H]1CCC[C@H]1NC(=O)Nc1cc2cc(-c3cnc4c(c3C)NCCO4)c(F)c(N)c2cn1 (single isomer, unassigned) [Compound 729b] | 0.015 |
| Cc1c(-c2cc3cc(NC(=O)N[C@H]4C[C@H]4C)ncc3c(N)c2F)cnc2c1NCCO2 (single isomer, unassigned) [Compound 736a] | < 0.013 |
| Cc1c(-c2cc3cc(NC(=O)N[C@@H]4C[C@@H]4C)ncc3c(N)c2F)cnc2c1NCCO2 (single isomer, unassigned) [Compound 736b] | < 0.013 |
| CO[C@@H]1COCC[C@@H]1NC(=O)Nc1cc2cc(-c3cnc4c(c3C)NCCO4)c(F)c(N)c2cn1 (single isomer, unassigned) [Compound 750a] | 0.96 |
| CO[C@H]1COCC[C@H]1NC(=O)Nc1cc2cc(-c3cnc4c(c3C)NCCO4)c(F)c(N)c2cn1 (single isomer, unassigned) [Compound 750b] | < 0.013 |
| Cc1c(-c2cc3cc(NC(=O)OC4CN(C)C4)ncc3c(N)c2F)cnc2c1NCCO2 [Compound 402, 1-Methylazetidin-3-yl (8-amino-7-fluoro-6-(8-methyl-2,3-dihydro-1H-pyrido[2,3-b][1,4]oxazin-7-yl)isoquinolin-3-yl)carbamate] | 0.11 |
| Cc1c(-c2cc3cc(NC(=O)OC4CCNCC4)ncc3c(N)c2F)cnc2c1NCCO2 [Compound 404, Piperidin-4-yl (8-amino-7-fluoro-6-(8-methyl-2,3-dihydro-1H-pyrido[2,3-b][1,4]oxazin-7-yl)isoquinolin-3-yl)carbamate] | 0.03 |
| Cc1c(-c2cc3cc(NC(=O)OC4CC5COCC(C4)N5C)ncc3c(N)c2F)cnc2c1NCCO2 (stereo not shown) [Compound 406, 9-Methyl-3-oxa-9-azabicyclo[3.3.1]nonan-7-yl (8-amino-7-fluoro-6-(8-methyl-2,3-dihydro-1H-pyrido[2,3-b][1,4]oxazin-7-yl)isoquinolin-3-yl)carbamate] | 0.4 |

Same assay, conditions: HPK1 Ki, ATP 1 mM

| SMILES | Ki [nM] |
| --- | --- |
| Cc1c(-c2cc3cc(NC(=O)N[C@H]4CCOC[C@H]4F)ncc3c(N)c2F)cnc2c1NCCO2 (single isomer, unassigned) [Compound 747a] | < 0.013 |
| Cc1c(-c2cc3cc(NC(=O)N[C@@H]4CCOC[C@@H]4F)ncc3c(N)c2F)cnc2c1NCCO2 (single isomer, unassigned) [Compound 747b] | < 0.013 |
| Cc1c(-c2cc3cc(NC(=O)O[C@H]4CCOC4)ncc3c(N)c2F)cnc2c1NCCO2 [Compound 403b, (S)-Tetrahydrofuran-3-yl (8-amino-7-fluoro-6-(8-methyl-2,3-dihydro-1H-pyrido[2,3-b][1,4]oxazin-7-yl)isoquinolin-3-yl)carbamate] | 0.064 |
